Molecular target: Akt1 (Homo sapiens (Human), UniProt P31749)
Experiment: Akt1 kinase assay (Akt1 TR-FRET assay)
Format: biochemical
Settings: His-tagged human recombinant full-length Akt1, 10 μM ATP, 1 μM peptide substrate
From the text: Biological Assay 1.0: Akt1 Kinase Assay
Akt1 inhibitory activity of compounds of the present invention was quantified employing the Akt1 TR-FRET assay as described in the following paragraphs.
His-tagged human recombinant kinase full-length Akt1 expressed in insect cells was purchased form Invitrogen (part number PV 3599). As substrate for the kinase reaction the biotinylated peptide biotin-Ahx-KKLNRTLSFAEPG (C-terminus in amide form) was used which can be purchased e.g. from the company Biosynthan GmbH (Berlin-Buch, Germany).
For the assay 50 nl of a 100 fold concentrated solution of the test compound in DMSO was pipetted into a black low volume 384 well microtiter plate (Greiner Bio-One, Frickenhausen, Germany), 2 μl of a solution of Akt1 in assay buffer [50 mM TRIS/HCl pH 7.5, 5 mM MgCl2, 1 mM dithiothreitol, 0.02% (v/v) Triton X-100 (Sigma)] were added and the mixture was incubated for 15 min at 22° C. to allow pre-binding of the test compounds to the enzyme before the start of the kinase reaction. Then the kinase reaction was started by the addition of 3 μl of a solution of adenosine-tri-phosphate (ATP, 16.7 μM=>final conc. in the 5 μl assay volume is 10 μM) and substrate (1.67 μM=>final conc. in the 5 μl assay volume is 1 μM) in assay buffer and the resulting mixture was incubated for a reaction time of 60 min at 22° C. The concentration of Akt1 in the assay was adjusted depending of the activity of the enzyme lot and was chosen appropriate to have the assay in the linear range, typical enzyme concentrations were in the range of about 0.05 ng/μl (final conc. in the 5 μl assay volume).
The reaction was stopped by the addition of 5 μl of a solution of HTRF detection reagents (200 nM streptavidine-XL665 [Cisbio] and 1.5 nM anti-phosho-Serine antibody [Millipore, cat. #35-001] and 0.75 nM LANCE Eu-W 1024 labeled anti-mouse IgG antibody [Perkin Elmer]) in an aqueous EDTA-solution (100 mM EDTA, 0.1% (w/v) bovine serum albumin in 50 mM HEPES/NaOH pH 7.5).
The resulting mixture was incubated 1 h at 22° C. to allow the binding of the biotinylated phosphorylated peptide to the streptavidine-XL665 and the antibodies. Subsequently the amount of phosphorylated substrate was evaluated by measurement of the resonance energy transfer from the anti-mouse-IgG-Eu-Chelate to the streptavidine-XL665. Therefore, the fluorescence emissions at 620 nm and 665 nm after excitation at 350 nm was measured in a HTRF reader, e.g. a Rubystar (BMG Labtechnologies, Offenburg, Germany) or a Viewlux (Perkin-Elmer). The ratio of the emissions at 665 nm and at […] was taken as the measure for the amount of phosphorylated substrate. The data were normalised (enzyme reaction without inhibitor=0% inhibition, all other assay components but no enzyme=100% inhibition).

Chain of Akt1 (P31749 whole entry): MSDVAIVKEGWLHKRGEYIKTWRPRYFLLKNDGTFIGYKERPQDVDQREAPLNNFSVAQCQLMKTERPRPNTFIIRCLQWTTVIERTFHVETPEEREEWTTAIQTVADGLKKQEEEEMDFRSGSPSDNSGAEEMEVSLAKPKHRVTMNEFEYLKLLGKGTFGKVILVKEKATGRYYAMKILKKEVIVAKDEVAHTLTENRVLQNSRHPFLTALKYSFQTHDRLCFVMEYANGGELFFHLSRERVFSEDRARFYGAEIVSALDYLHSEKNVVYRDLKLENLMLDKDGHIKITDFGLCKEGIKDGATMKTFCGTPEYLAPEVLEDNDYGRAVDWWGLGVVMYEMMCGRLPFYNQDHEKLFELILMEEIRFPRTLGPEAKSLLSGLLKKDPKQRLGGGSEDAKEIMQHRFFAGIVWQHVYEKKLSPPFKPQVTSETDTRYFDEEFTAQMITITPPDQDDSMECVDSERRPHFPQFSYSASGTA

| IC50 [nM] | SMILES |
| --- | --- |
| 5600 | NC1(c2ccc(-c3nc4c5cccc(-c6ccc(F)cc6)c5nn4cc3-c3ccccc3)cc2)CCC1 [Example 8.2, 1-{4-[7-(4-Fluorophenyl)-3-phenylpyrimido[1,2-b]indazol-2-yl]-phenyl}cyclobutylamine] |
| 720 | NC1(c2ccc(-c3nc4c5cccc(-c6ccc(CO)cc6)c5nn4cc3-c3ccccc3)cc2)CCC1 [Example 8.3, 4-{2-[4-(1-Aminocyclobutyl)phenyl]-3-phenylpyrimido[1,2-b]indazol-7-yl}benzyl alcohol formiate] |
| 17000 | CS(=O)(=O)c1cccc(-c2cccc3c2nn2cc(-c4ccccc4)c(-c4ccc(C5(N)CCC5)cc4)nc32)c1 [Example 8.4, 1-{4-[7-(3-Mesylphenyl)-3-phenylpyrimido[1,2-b]indazol-2-yl]-phenyl}cyclobutylamine] |
| 160 | NC1(c2ccc(-c3nc4c5cccc(-c6cn[nH]c6)c5nn4cc3-c3ccccc3)cc2)CCC1 [Example 8.5, 1-{4-[3-Phenyl-7-(1H-pyrazol-4-yl)pyrimido[1,2-b]indazol-2-yl]-phenyl}cyclobutylamine×0.5 formiate] |
| 740 | COC(=O)c1cccc2c1nn1cc(-c3ccccc3)c(-c3ccc(C4(N)CCC4)cc3)nc21 [Example 10, 2-[4-(1-Aminocyclobutyl)phenyl]-3-phenylpyrimido[1,2-b]indazole-7-carboxylic acid methyl ester formiate] |
| 580 | NC(=O)/C=C/c1cccc2c1nn1cc(-c3ccccc3)c(-c3ccc(C4(N)CCC4)cc3)nc21 [Example 14, (E)-3-{2-[4-(1-Aminocyclobutyl)phenyl]-3-phenylpyrimido[1,2-b]indazol-7-yl}-acrylamide] |
| 15 | NC1(c2ccc(-c3nc4c5ccc(-c6ccn[nH]6)cc5nn4cc3-c3ccccc3)cc2)CCC1 [Example 15.0, 1-{4-[3-Phenyl-8-(1H-pyrazol-5-yl)pyrimido[1,2-b]indazol-2-yl]phenyl}-cyclobutylamine] |
| 10 | Cc1cc(-c2ccc3c(c2)nn2cc(-c4ccccc4)c(-c4ccc(C5(N)CCC5)cc4)nc32)[nH]n1 [Example 15.1, 1-{4-[8-(3-Methyl-1H-pyrazol-5-yl)-3-phenylpyrimido[1,2-b]indazol-2-yl]phenyl}cyclobutylamine] |
| 10 | NC1(c2ccc(-c3nc4c5cc(-c6ccn[nH]6)ccc5nn4cc3-c3ccccc3)cc2)CCC1 [Example 15.2, 1-{4-[3-Phenyl-9-(1H-pyrazol-5-yl)pyrimido[1,2-b]indazol-2-yl]-phenyl}cyclobutylamine] |
| 6 | Cc1cc(-c2ccc3nn4cc(-c5ccccc5)c(-c5ccc(C6(N)CCC6)cc5)nc4c3c2)[nH]n1 [Example 15.3, 1-{4-[9-(3-Methyl-1H-pyrazol-5-yl)-3-phenylpyrimido[1,2-b]indazol-2-yl]phenyl}cyclobutylamine] |
| 10 | COC(=O)/C=C/c1ccc2nn3cc(-c4ccccc4)c(-c4ccc(C5(N)CCC5)cc4)nc3c2c1 [Example 15.4, (E)-3-{2-[4-(1-Aminocyclobutyl)phenyl]-3-phenylpyrimido[1,2-b]indazol-9-yl}acrylic acid methyl ester] |
| 30 | NC(=O)/C=C/c1ccc2nn3cc(-c4ccccc4)c(-c4ccc(C5(N)CCC5)cc4)nc3c2c1 [Example 15.5, (E)-3-{2-[4-(1-Aminocyclobutyl)phenyl]-3-phenylpyrimido[1,2-b]indazol-9-yl}acrylamide] |
